Laboratory results: US4753953A, “Pyridonecarboxylic acid derivatives and antibacterial pharmaceutical compositions thereof” (priority 1985, dated 1988)
≈ marks a conversion by molar mass, not a printed value.

What was measured:
[1] = tested on: Staphylococcus aureus 209 P; experiment: MIC, in vitro antibacterial activity (standard strains); assay type: cell-based; conditions: Staphylococcus aureus, 209P; 10^6 cells/ml; Gram +; read-out: MIC
S. aureus Smith = experiment: as above; assay type: cell-based, Staphylococcus aureus; conditions: Staphylococcus aureus; 10^6 cells/ml; Gram +; read-out: MIC
S. epidermidis IID 866 = experiment: as above; assay type: cell-based; conditions: Staphylococcus epidermidis, IID866; 10^6 cells/ml; Gram +; read-out: MIC
[2] = tested on: Streptococcus pyogenes (S-8); experiment: as above; assay type: cell-based; conditions: Streptococcus pyogenes; 10^6 cells/ml; Gram +; read-out: MIC
S. pyogenes IID 692 = experiment: as above; assay type: cell-based, Streptococcus pyogenes; conditions: Streptococcus pyogenes, IID692; 10^6 cells/ml; Gram +; read-out: MIC
E. faecalis IID 682 = experiment: as above; assay type: cell-based; conditions: Enterococcus faecalis, IID682; 10^6 cells/ml; Gram +; read-out: MIC
E. coli ATCC 10536 = experiment: as above; assay type: cell-based, Escherichia coli; conditions: Escherichia coli, ATCC10536; 10^6 cells/ml; Gram -; read-out: MIC
[3] = tested on: Proteus vulgaris IFO 3167; experiment: as above; assay type: cell-based; conditions: Proteus vulgaris, IFO3167; 10^6 cells/ml; Gram -; read-out: MIC
P. mirabilis IID 994 = experiment: as above; assay type: cell-based; conditions: Proteus mirabilis, IID994; 10^6 cells/ml; Gram -; read-out: MIC
[4] = tested on: Morganella morganii IID 602; experiment: as above; assay type: cell-based; conditions: Morganella morganii, IID602; 10^6 cells/ml; Gram -; read-out: MIC
[5] = tested on: Klebsiella pneumoniae KY(GN)6445; experiment: as above; assay type: cell-based; conditions: Klebsiella pneumoniae; 10^6 cells/ml; Gram -; read-out: MIC
[6] = tested on: Enterobacter cloacae IID 977; experiment: as above; assay type: cell-based; conditions: Enterobacter cloacae, IID977; 10^6 cells/ml; Gram -; read-out: MIC
[7] = tested on: Citrobacter freundii IID 976; experiment: as above; assay type: cell-based; conditions: Citrobacter freundii, IID976; 10^6 cells/ml; Gram -; read-out: MIC
[8] = tested on: Serratia marcescens IID 618; experiment: as above; assay type: cell-based; conditions: Serratia marcescens, IID618; 10^6 cells/ml; Gram -; read-out: MIC
Shigella sonnei IID 969 = experiment: as above; assay type: cell-based; conditions: Shigella sonnei, IID969; 10^6 cells/ml; Gram -; read-out: MIC
Method: Minimal inhibitory concentrations (MICs) were determined in accordance with the method recommended by Japan Society of Chemotherapy.

[9] = tested on: Salmonella enteritidis IID 604; experiment: as above; assay type: cell-based; conditions: Salmonella enterica; 10^6 cells/ml; Gram -; read-out: MIC
[10] = tested on: Pseudomonas aeruginosa V-1; experiment: as above; assay type: cell-based; conditions: Pseudomonas aeruginosa, V1; 10^6 cells/ml; Gram -; read-out: MIC
P. aeruginosa IID 1210 = experiment: as above; assay type: cell-based, Pseudomonas aeruginosa; conditions: Pseudomonas aeruginosa, IID1210; 10^6 cells/ml; Gram -; read-out: MIC
P. cepacia GIFU 518 = experiment: as above; assay type: cell-based; conditions: Burkholderia cepacia, GIFU518
[11] = tested on: Yersinia enterocolitica IID 981; experiment: as above; assay type: cell-based; conditions: Yersinia enterocolitica, IID981; 10^6 cells/ml; Gram -; read-out: MIC
[12] = tested on: Alcaligenes faecalis 0114002; experiment: as above; assay type: cell-based; conditions: Alcaligenes faecalis, 0114002; 10^6 cells/ml; Gram -; read-out: MIC
[13] = tested on: Bacteroides fragilis GM 7000; experiment: as above; assay type: cell-based; conditions: Bacteroides fragilis, GM7000; 10^6 cells/ml; Gram -; read-out: MIC
B. fragilis 0558 = experiment: as above; assay type: cell-based, Bacteroides fragilis; conditions: Bacteroides fragilis, 0558; 10^6 cells/ml; Gram -; read-out: MIC
B. fragilis 25285 = experiment: as above; assay type: cell-based, Bacteroides fragilis; conditions: Bacteroides fragilis, 25285; 10^6 cells/ml; Gram -; read-out: MIC
B. distasonis 8503 = experiment: as above; assay type: cell-based; conditions: Parabacteroides distasonis, 8503; 10^6 cells/ml; Gram -; read-out: MIC
[14] = tested on: B. thetaiotaomicron (0661); experiment: as above; assay type: cell-based; conditions: Bacteroides thetaiotaomicron; 10^6 cells/ml; Gram -; read-out: MIC
[15] = tested on: Fusobacterium mortiferum 4249; experiment: as above; assay type: cell-based; conditions: Fusobacterium mortiferum, 4249; 10^6 cells/ml; Gram -; read-out: MIC
F. varium KYA 8501 = experiment: as above; assay type: cell-based; conditions: Fusobacterium varium, KYA8501; 10^6 cells/ml; Gram -; read-out: MIC
[16] = tested on: Eubacterium lentum GAI 5242; experiment: as above; assay type: cell-based; conditions: Eggerthella lenta, GAI5242; 10^6 cells/ml; Gram +; read-out: MIC
C. perfringens KYA 13123 = experiment: microbe, parasite or virus in culture; assay type: cell-based; conditions: Clostridium perfringens, KYA13123
C. ramosum = experiment: MIC, in vitro antibacterial activity (standard strains); assay type: cell-based; conditions: Thomasclavelia ramosa; 10^6 cells/ml; Gram +; read-out: MIC
[17] = tested on: Peptostreptococcus anaerobius KYA 27337; experiment: as above; assay type: cell-based; conditions: Peptostreptococcus anaerobius, KYA27337; 10^6 cells/ml; Gram +; read-out: MIC

Row | Compound | MIC [1] [µg/mL] | MIC (S. aureus Smith) [µg/mL] | MIC (S. epidermidis IID 866) [µg/mL] | MIC [2] [µg/mL] | MIC (S. pyogenes IID 692) [µg/mL] | MIC (E. faecalis IID 682) [µg/mL] | MIC (E. coli ATCC 10536) [µg/mL] | MIC [3] [µg/mL] | MIC (P. mirabilis IID 994) [µg/mL] | MIC [4] [µg/mL] | MIC [5] [µg/mL] | MIC [6] [µg/mL] | MIC [7] [µg/mL] | MIC [8] [µg/mL] | MIC (Shigella sonnei IID 969) [µg/mL] | MIC [9] [µg/mL] | MIC [10] [µg/mL] | MIC (P. aeruginosa IID 1210) [µg/mL] | MIC (P. cepacia GIFU 518) [µg/mL] | MIC [11] [µg/mL] | further results
1 | CNCC1CN(c2c(F)cc3c(=O)c(C(=O)O)cn(C4CC4)c3c2F)CC1C (stereo not drawn) [Example 13, 1-Cyclopropyl-6,8-difluoro-1,4-dihydro-7-(3-methylaminomethyl-4-methyl-1-pyrrolidinyl)-4-oxo-3-quinolinecarboxylic acid] | 0.05 (≈ 0.128 µM) | 0.05 (≈ 0.128 µM) | 0.05 (≈ 0.128 µM) | 0.1 (≈ 0.255 µM) | 0.2 (≈ 0.511 µM) | 0.2 (≈ 0.511 µM) | 0.05 (≈ 0.128 µM) | 0.05 (≈ 0.128 µM) | 0.2 (≈ 0.511 µM) | 0.2 (≈ 0.511 µM) | 0.05 (≈ 0.128 µM) | 0.2 (≈ 0.511 µM) | 0.05 (≈ 0.128 µM) | 0.2 (≈ 0.511 µM) | 0.05 (≈ 0.128 µM) | 0.1 (≈ 0.255 µM) | 0.39 (≈ 0.996 µM) | 1.56 (≈ 3.99 µM) | 0.78 (≈ 1.99 µM) | 0.1 (≈ 0.255 µM) | MIC [12]: 0.78 µg/mL (≈ 1.99 µM); MIC [13]: 0.78 µg/mL (≈ 1.99 µM); MIC (B. fragilis 0558): 0.78 µg/mL (≈ 1.99 µM); MIC (B. fragilis 25285): 0.78 µg/mL (≈ 1.99 µM); MIC (B. distasonis 8503): 3.13 µg/mL (≈ 8 µM); MIC [14]: 3.13 µg/mL (≈ 8 µM); MIC [15]: 0.39 µg/mL (≈ 0.996 µM); MIC (F. varium KYA 8501): 1.56 µg/mL (≈ 3.99 µM); MIC [16]: 0.78 µg/mL (≈ 1.99 µM); MIC (C. perfringens KYA 13123): 0.2 µg/mL (≈ 0.511 µM); MIC (C. ramosum): 0.78 µg/mL (≈ 1.99 µM); MIC [17]: 0.2 µg/mL (≈ 0.511 µM)
2 | CCNCC1CN(c2c(F)cc3c(=O)c(C(=O)O)cn(C4CC4)c3c2Cl)CC1C (stereo not drawn) [Example 14, 8-Chloro-1-cyclopropyl-7-(3-ethylaminomethyl-4-methyl-1-pyrrolidinyl)-6-fluoro-1,4-dihydro-4-oxo-3-quinolinecarboxylic acid] | 0.0125 (≈ 0.0296 µM) | 0.0125 (≈ 0.0296 µM) | 0.0125 (≈ 0.0296 µM) | 0.05 (≈ 0.119 µM) | 0.05 (≈ 0.119 µM) | 0.05 (≈ 0.119 µM) | 0.025 (≈ 0.0593 µM) | 0.05 (≈ 0.119 µM) | 0.1 (≈ 0.237 µM) | 0.2 (≈ 0.474 µM) | 0.05 (≈ 0.119 µM) | 0.2 (≈ 0.474 µM) | 0.1 (≈ 0.237 µM) | 0.2 (≈ 0.474 µM) | 0.025 (≈ 0.0593 µM) | 0.2 (≈ 0.474 µM) | 0.78 (≈ 1.85 µM) | 3.13 (≈ 7.42 µM) | 0.78 (≈ 1.85 µM) | 0.2 (≈ 0.474 µM) | MIC [12]: 0.78 µg/mL (≈ 1.85 µM); MIC [13]: 0.1 µg/mL (≈ 0.237 µM); MIC (B. fragilis 0558): ≤ 0.05 µg/mL; MIC (B. fragilis 25285): 0.05 µg/mL (≈ 0.119 µM); MIC (B. distasonis 8503): 0.39 µg/mL (≈ 0.924 µM); MIC [14]: 0.2 µg/mL (≈ 0.474 µM); MIC [15]: 0.2 µg/mL (≈ 0.474 µM); MIC (F. varium KYA 8501): 1.56 µg/mL (≈ 3.7 µM); MIC [16]: 0.2 µg/mL (≈ 0.474 µM); MIC (C. perfringens KYA 13123): ≤ 0.05 µg/mL; MIC (C. ramosum): 0.2 µg/mL (≈ 0.474 µM); MIC [17]: ≤ 0.05 µg/mL
3 | CCNCC1CN(c2c(F)cc3c(=O)c(C(=O)O)cn(C4CC4)c3c2F)CC1C (stereo not drawn) [Example 15, 1-Cyclopropyl-7-(3-ethylaminomethyl-4-methyl-1-pyrrolidinyl)-6,8-difluoro-1,4-dihydro-4-oxo-3-quinolinecarboxylic acid] | 0.05 (≈ 0.123 µM) | 0.05 (≈ 0.123 µM) | 0.05 (≈ 0.123 µM) | 0.1 (≈ 0.247 µM) | 0.1 (≈ 0.247 µM) | 0.1 (≈ 0.247 µM) | 0.05 (≈ 0.123 µM) | 0.1 (≈ 0.247 µM) | 0.1 (≈ 0.247 µM) | 0.2 (≈ 0.493 µM) | 0.05 (≈ 0.123 µM) | 0.2 (≈ 0.493 µM) | 0.1 (≈ 0.247 µM) | 0.2 (≈ 0.493 µM) | 0.05 (≈ 0.123 µM) | 0.2 (≈ 0.493 µM) | 0.78 (≈ 1.92 µM) | 3.13 (≈ 7.72 µM) | 0.78 (≈ 1.92 µM) | 0.2 (≈ 0.493 µM) | MIC [12]: 0.78 µg/mL (≈ 1.92 µM); MIC [13]: 0.78 µg/mL (≈ 1.92 µM); MIC (B. fragilis 0558): 0.39 µg/mL (≈ 0.962 µM); MIC (B. fragilis 25285): 0.39 µg/mL (≈ 0.962 µM); MIC (B. distasonis 8503): 3.13 µg/mL (≈ 7.72 µM); MIC [14]: 1.56 µg/mL (≈ 3.85 µM); MIC [15]: 0.39 µg/mL (≈ 0.962 µM); MIC (F. varium KYA 8501): 1.56 µg/mL (≈ 3.85 µM); MIC [16]: 0.39 µg/mL (≈ 0.962 µM); MIC (C. perfringens KYA 13123): 0.1 µg/mL (≈ 0.247 µM); MIC (C. ramosum): 0.78 µg/mL (≈ 1.92 µM); MIC [17]: 0.2 µg/mL (≈ 0.493 µM)
